# “Also recorded” adds a separate entry of the source.
# How the values were obtained:
# [1] = Phase II clinical trial in B-NHL with rituximab, tolerance / toxicity; type: in vivo, human; conditions: B-NHL patients
# Procedure: (§1) 5 patients suffering from B-NHL are treated with 4 MIU total in human daily (arm A, 3 patients), or 8 MIU total in human daily (arm B, 2 patients). The treatment regimen used for this study is set out in FIG. 4B.
# (§2) Rituxan™ (rituximab) is administered at a dose of 375 mg/m^2, on day 0 and then on day 7, 14 and 21, which corresponds to the common Rituxan™ treatment. Phosphostim™ is administered once on day 7 which is the first day of treatment. IL-2 is administered daily subcutaneous (s.c.) from day 7 to day 11. On day 7, IL-2 is administered 10 minutes after the end of Phosphostim™ infusion.
# NK cells = assay: Phase II clinical trial in mRCC, NK cell fold increase day 7 vs pre-dose; type: in vivo, human; conditions: Phosphostim with IL-2 2 MIU or 8 MIU total daily (FIG. 3)
# Procedure: (§3) FIG. 3 has been obtained from observations made during the clinical trial as described above. On day 7, cell subsets were determined and compared to the count made on day 0, before the treatment.
# (§4) A specific pharmacological expansion of γδ T cell with Phosphostim™ was observed, and this expansion was related to dose of IL-2 administered. […] Moreover, despite an increased dose of IL-2 compared to previous publications, this expansion is still very specific to γδ T cells.
# γδ T cells [2] = assay: Phase I BrHPP dose escalation with IL-2 1 MU/m^2, γδ T cell amplification (FIG. 7); type: in vivo, human; conditions: BrHPP 100, 300, 600 and 900 MU/m^2 iv 30 min infusion day 1; IL-2 1 MU/m^2 daily for four days
# Procedure: The first four columns (corresponding to 100, 300, 600 and 900 MU/m^2 doses of BrHPP) correspond to patients treated with BrHPP (iv, 30 min infusion on day 1) and IL-2 (1 MU/m^2 daily for four days starting on day 1) whereas the last two columns represent B-NHL patients who have been treated with 4 MIU total in human daily (arm A), or 8 MIU total in human daily (arm B), in the treatment setting described for FIG. 6.
# [3] = Phase II clinical trial in mRCC, tolerance / toxicity; type: in vivo, human; conditions: mRCC patients
# Procedure: (§5) A phase II clinical trial in mRCC was set up, to test the efficacy of a therapeutic regimen with a fixed dose of Phosphostim™ (750 mg/m^2, 50 ml infusion in 30 min) and two doses of IL-2.
# (§6) Patients in Arm A were treated with an IL-2 dose of 2 MIU total daily (equivalent to approximately 1 MIU/m^2 daily). Patients in Arm B were treated with an IL-2 dose of 8 MIU total daily. For practical reasons, and as a human body surface varies from 1.5 to 2.1 m^2 depending on each variable of the patient, a single dose for all the patients of Arm B was fixed. It will be appreciated that when taking the variations in body surface into account, this 8 MIU total daily dose of IL-2 can also be expressed as a range from […] daily.
# (§7) Patients suffering from mRCC were treated with a fixed dose of Phosphostim™ (750 mg/m^2, i.v. infusion of 30 min) and IL-2, at a dose of 2 MIU subcutaneous (s.c.) daily (arm A, 18 patients), or 8 MIU s.c. daily (arm B, 21 patients).
# (§8) Phosphostim™ was administered once on day 1 which is the first day of treatment. IL-2 is administered daily s.c. from day 1 to day 5. On day 1, IL-2 is administered 10 minutes after the end of Phosphostim™ infusion.
# γδ T cells [4] = assay: Phase II clinical trial in mRCC, γδ T cell fold increase day 7 vs pre-dose (flow cytometry); type: in vivo, human
# Procedure: Blood samples (4 ml) were withdrawn into EDTA containing tubes. Tubes were shipped overnight at room temperature (RT) before flow cytometry analyses.
# Peripheral lymphocytes were analyzed by flow cytometry on total blood, after triple staining with anti-Vδ2FITC, anti-CD3PE and anti-CD25PC5 antibodies (Vδ2-FITC: IMMU389 clone, Immunotech-Beckman-Coulter, Marseilles, France; CD3-PE: UCHT1 clone, Immunotech-Beckman-Coulter; CD25PC5: M-A251 clone, Becton Dickinson, Le Pont de Claix, France).
# Briefly, 100 μl patient blood was incubated 15 min at RT with 10 μl anti-Vdelta2-FITC, 10 μl anti-CD3-PE and 10 μl anti-CD25PC5 antibodies. Antibodies were washed with 3 ml 1×PBS, centrifuged for 4 min at 1300 rpm at RT and supernatant was discarded. Red cells were lysed with the OptiLyse B reagent (Immunotech-Beckman-Coulter, Marseilles, France) according to the manufacturer's instructions. At the final step, stained white blood cells were recovered by centrifugation and resuspended in 300 μl 1×PBS+0.2% PFA. Flow cytometry analysis on viable cells was performed on a FacsSCAN apparatus (Becton Dickinson) with the FacsDiva software.
# as §5, §6, §7, §8
# γδ T cell population was measured through cytometry on day 0 (before the beginning of the treatment) and on day 7. The expansion of γδ T cell was obtained in fold increase of expansion compared to the basal γδ T cell count.
# Vγ9Vδ2 T cells = assay: IL-2 dose range with fixed dose of Phosphostim in cynomolgus macaque, Vγ9Vδ2 T cell expansion by flow cytometry; type: in vivo, cynomolgus monkeys (M. fascicularis); conditions: Phosphostim 48 mg/kg i.v. once, day 5 vs day 0
# Procedure: As detailed in Example 2, a study has been set up on nonhuman primates (Cynomolgus macaques) to investigate the effect of the IL-2 dose on γδ T cell expansion in vivo, with a fixed dose of Phosphostim™ (48 mg/kg). Blood extracts have been dosed by flow cytometry on day 5 and the γδ T cell expansion has been expressed in expansion percentage compared to the basal γδ T cell count.
# Follow up of Vγ9Vδ2 T cells in vivo in the macaque has been performed as usual by flow cytometry on days 0 (pre-dose) and 5 of treatment. […]
# IL2: recombinant human IL2, Proleukin™, CHIRON; administered daily by subcutaneous (s.c.) route.
# Phosphostim™ dose 48 mg/kg administered as 30-min infusion by intravenous (i.v.) route.
# Twelve cynomolgus monkeys (M. fascicularis) aged 2.5 to 3.5 years at the start of the study. These animals were naïve of any previous treatment with phosphoantigens or IL2.
# The animals have been allocated to 4 dose-groups (0.075, 0.3, 1.2 and 2.4 million UI per day for 7 days), with 3 animals per dose, receiving IL2 daily for 7 days have, and a fixed dose of Phosphostim™ 200 (48 mg/kg) once, on the first day of treatment, with 3 animals per dose.
# total T cells = assay: Phase II clinical trial in mRCC, total T cell fold increase day 7 vs pre-dose; type: in vivo, human; conditions: Phosphostim with IL-2 2 MIU or 8 MIU total daily (FIG. 3)
# Procedure: as §3, §4
# γδ T cells [5] = assay: Phase II clinical trial in B-NHL with rituximab, γδ T cell fold increase; type: in vivo, human; conditions: for γδ T cell fold increase as compared to pre-dose (mean): B-NHL, Phosphostim once day 7, rituximab 375 mg/m^2, measured day 0 and day 145
# Procedure: as §1, §2
# γδ T cell population is measured through cytometry on day 0 (before the beginning of the treatment) and on day 145 (corresponds to day 7 from the beginning of the Phosphostim™ treatment. The expansion of γδ T cell is obtained in fold increase compared to the basal γδ T cell count.
# γδ T cells [6] = conditions: adults with multiple myeloma, intravenous 60-90 mg, within one to three weeks (Kunzmann, 1999); cited from earlier work
# [7] = in vivo; cited from earlier work
molecule,measurement,setting,value
3-(bromomethyl)-3-butanol-1-yl-diphosphate [Phosphostim™],toxicity in Arm B compared to Arm A,[1]; IL-2 8 MIU vs 4 MIU total daily,no significant difference in toxicity
same,tolerance to the IL-2 dose administered with Phosphostim and rituximab,[1]; arm B IL-2 8 MIU total daily,good tolerance
same,NK cell fold increase on day 7 as compared to pre-dose,NK cells,are not expanded; also recorded: do not observe a significant NK cells expansion
same,influence of the quantity of BrHPP on the γδ T cell amplification,γδ T cells [2],slight influence
same,toxicity in Arm B compared to Arm A,[3]; IL-2 8 MIU vs 2 MIU total daily with Phosphostim,none of the patients in arm B experienced an adverse toxicity effect; also recorded: no significant difference in toxicity
same,tolerance to the IL-2 dose administered with Phosphostim,[3]; arm B IL-2 8 MIU total daily,good tolerance
same,"γδ T cell expansion, arm B compared to arm A","γδ T cells [4]; IL-2 8 MIU total daily vs 2 MIU total daily, fixed Phosphostim 750 mg/m^2",significantly better γδ T cell expansion; also recorded: significantly higher
same,γδ T cell fold increase on day 7 as compared to pre-dose (mean),"γδ T cells [4]; arm A: IL-2 2 MIU total daily s.c. day 1-5, Phosphostim 750 mg/m^2 i.v. day 1, 18 patients (FIG. 2)",3 fold
same,γδ T cell fold increase on day 7 as compared to pre-dose (mean),"γδ T cells [4]; arm A: IL-2 2 MIU total daily, updated results, 29 patients (FIG. 5)",2 fold
same,γδ T cell fold increase on day 7 as compared to pre-dose (mean),"γδ T cells [4]; arm B: IL-2 8 MIU total daily s.c. day 1-5, Phosphostim 750 mg/m^2 i.v. day 1, 21 patients (FIG. 2)",12 fold
same,γδ T cell fold increase on day 7 as compared to pre-dose (mean),"γδ T cells [4]; arm B: IL-2 8 MIU total daily, updated results, 31 patients (FIG. 5)",8 fold
same,γδ T cell expansion,Vγ9Vδ2 T cells; IL-2 0.075 MIU/animal/day s.c. for 7 days,not sufficient to induce a γδT cell specific amplification; also recorded: no effect
same,γδ T cell expansion,Vγ9Vδ2 T cells; IL-2 0.3 MIU/animal/day s.c. for 7 days,specific and significant γδcell expansion; also recorded: weak γδT cell increase
same,γδ T cell expansion,Vγ9Vδ2 T cells; IL-2 1.2 MIU/animal/day s.c. for 7 days,the expansion is higher; also recorded: significantly higher increase; also recorded: a plateau is observed at this dose
same,γδ T cell expansion,Vγ9Vδ2 T cells; IL-2 2.4 MIU/animal/day s.c. for 7 days,the expansion is higher; also recorded: significantly higher increase; also recorded: does not trigger a better expansion than 1.2 MIU/animal/daily
same,total T cell fold increase on day 7 as compared to pre-dose,total T cells,are not expanded; also recorded: nor a significant total T cell expansion
same,γδ T cell fold increase as compared to pre-dose (mean),"γδ T cells [5]; arm A: IL-2 4 MIU total daily s.c. day 7-11, 3 patients",17 fold
same,γδ T cell fold increase as compared to pre-dose (mean),"γδ T cells [5]; arm B: IL-2 8 MIU total daily s.c. day 7-11, 2 patients",46 fold
same,"γδ T cell amplification, higher IL-2 dose compared to lower dose",γδ T cells [5]; IL-2 8 MIU total daily vs lower IL-2 doses (FIGS. 6 and 7),much better γδ T cell amplification
"NCCC(O)(P(=O)(O)O)P(=O)(O)O [pamidronate, 3-amino-1-hydroxypropane-1,1-diphosphonic acid]",circulating γδ T cells,γδ T cells [6],increases of circulating γδ T cells
"des-alanyl-1, serine-125-human interleukin-2 [IL-2]",toxicity grade reported,[7],grade III or IV toxicity
